US20230042729A1, “PEPTIDE CONSTRUCTS AND COMPOSITIONS” (DIET4LIFE APS, priority 2019, published 2023)
pEC50: −log10 of the molar value. No end group written: not given here.

Key:
trypsin = trypsin (Homo sapiens, UniProt P07477); test: Stability studies of DC7-2: trypsin; assay type: in vitro ADME
[1] = Stability of peptides in serum, remaining activity read in intestinal cells; assay type: in vitro ADME, Bovine; settings: octapeptides; fraction of peptide activity left after 10 min of incubation in serum at 37° C. compared with undigested sample
Procedure: All peptides were incubated at 10^−5 M with Fetal Bovine Serum (FBS; final concentration of 66.7%) (Sigma Aldrich, Denmark) at 37° C. for 3 hours. The peptide degradation was terminated using 1 M phosphoric acid (final 0.4 M, pH˜1.2) and neutralized to pH 7.2-7.4 with NaOH before testing activity in intestinal cells. As for small intestine homogenates, a zero degradation control was included for each peptide.
DC7-2, NT, DKPYIL and NT-(8-13) (final concentration of 10^−6 M) were incubated either with FBS or with 270× diluted intestinal homogenate at 37° C. for various time points with shaking. Degradation was stopped with 1 M phosphoric acid and the samples were subsequently neutralized and immediately tested with intestinal cells as described above. Control for zero degradation was included for each peptide as above.
(§1) The 20 hexapeptides with systematic N-terminal substitutions (X-KPYIL) (Schafer-N, Denmark) and NT (8-13) was incubated at 10^−6 M in either FBS for 10 minutes or with 270× diluted intestinal homogenate for 30 minutes at 37° C. with shaking. The degradation was stopped with 1 M phosphoric acid. Peptide solutions were neutralized with NaOH (pH 7.2-7.4), diluted and immediately tested for bioactivity using murine intestinal cells. Determination of EC50 for stimulation of cells allowed calculation of recovered peptide.

chymotrypsin = chymotrypsin (Homo sapiens, UniProt P17538); test: Stability studies of DC7-2: chymotrypsin; assay type: in vitro ADME
chymotrypsin, sequence (P17538 19-263): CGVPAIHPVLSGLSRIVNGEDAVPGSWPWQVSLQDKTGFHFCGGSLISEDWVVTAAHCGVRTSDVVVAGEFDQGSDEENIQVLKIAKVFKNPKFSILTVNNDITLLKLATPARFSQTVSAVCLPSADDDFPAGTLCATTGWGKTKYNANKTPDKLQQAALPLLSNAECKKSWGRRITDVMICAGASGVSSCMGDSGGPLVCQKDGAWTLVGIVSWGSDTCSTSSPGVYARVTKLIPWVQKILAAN

gastric pepsin = gastric pepsin (Homo sapiens, UniProt P0DJD8); test: Stability studies of DC7-2: pepsin; assay type: in vitro ADME
gastric pepsin, sequence (P0DJD8 63-388): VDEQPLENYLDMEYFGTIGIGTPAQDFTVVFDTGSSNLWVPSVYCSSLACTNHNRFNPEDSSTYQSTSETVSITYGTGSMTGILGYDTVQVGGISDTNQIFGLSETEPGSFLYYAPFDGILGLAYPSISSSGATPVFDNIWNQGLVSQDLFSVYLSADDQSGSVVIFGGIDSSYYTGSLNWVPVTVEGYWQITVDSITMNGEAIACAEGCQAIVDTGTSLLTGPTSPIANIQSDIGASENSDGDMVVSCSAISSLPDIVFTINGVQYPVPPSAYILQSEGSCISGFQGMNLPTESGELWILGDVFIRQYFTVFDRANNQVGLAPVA

murine intestinal cells = murine intestinal cells (Mus musculus, UniProt O88319); test: Ca2+ flux / calcium response assay (cell signaling activity); assay type: cell-based
murine intestinal cells, sequence (O88319 whole entry): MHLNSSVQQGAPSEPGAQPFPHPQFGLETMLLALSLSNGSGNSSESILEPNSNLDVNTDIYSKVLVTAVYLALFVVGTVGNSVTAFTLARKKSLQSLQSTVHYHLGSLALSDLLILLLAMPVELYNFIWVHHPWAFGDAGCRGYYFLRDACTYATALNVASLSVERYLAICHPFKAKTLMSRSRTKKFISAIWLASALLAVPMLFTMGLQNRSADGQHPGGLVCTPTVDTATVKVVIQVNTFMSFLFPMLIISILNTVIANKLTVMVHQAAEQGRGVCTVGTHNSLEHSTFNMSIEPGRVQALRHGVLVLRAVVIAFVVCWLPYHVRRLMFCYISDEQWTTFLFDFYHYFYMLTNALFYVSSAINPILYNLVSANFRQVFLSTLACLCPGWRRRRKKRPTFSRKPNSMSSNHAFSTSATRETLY
Procedure: Ca^2+ Flux Assay/Calcium Response Assay:
Elevation of intracellular calcium level was measured using the fluorescent calcium chelating dye Fluo-4 AM (ThermoFischer Scientific, Denmark). Briefly, cells were grown as a monolayer in 96-well tissue culture plates (Sarstedt, Germany) to near confluence in appropriate growth medium as described in the cell culture section.
All test compounds were dissolved in water, and then diluted in 1×HBSS containing 25 mM HEPES (pH 7.4), 1% BSA and 2% ink. […]

[2] = Stability of peptides in intestine homogenate, remaining activity read in intestinal cells; assay type: in vitro ADME, mice; settings: octapeptides; % activity left after 30 min incubation in intestine homogenate at 37° C.
Procedure: Small intestines from 20 Swiss-Webster males were homogenized in 350 ml Dulbecco's phosphate-buffered saline (PBS) (pH 7.4) (ThermoFischer Scientific, Denmark) with a IKA® basic 18 Ultra-Turrax tissue homogenizer set a speed 5 followed by filtration using 100 μm nylon mesh filter. Protein concentration was 6 mg/ml using the bicinconinic acid assay (ThermoFischer Scientific, Denmark) and bovine serum albumin as standard. The intestine homogenate was diluted 10 times in HBSS containing 25 mM HEPES (pH 7.4), and further diluted 30×, 90×, 270×, 810× or 2430× before incubation with peptides. All solutions were prewarmed to 37° C. before mixing with peptide solutions.
Peptides were incubated at 10^−5 M with dilutions of small intestine homogenate at 37° C. for 90 minutes with shaking. Reactions were stopped by addition of 1 M phosphoric acid (final 0.4 M, pH˜1.2). Each peptide incubation mix was then neutralized with NaOH to pH 7.2-7.4 and immediately tested for activity in intestinal cells. Control for zero degradation, i.e. addition of 1 M phosphoric acid prior to addition of intestine homogenate, was included for each peptide. […]
as §1

carboxypeptidases = test: Stability studies of DC7-2: carboxypeptidases; assay type: in vitro ADME
[3] = Stability of peptides ex vivo in rodent intestine; assay type: in vitro ADME, mouse or rat; settings: rodent intestine model of degradation
Procedure: 0,001 mg/ml of the indicated peptides were incubated with pieces of rodent intestine (mouse and rat intestine gave similar results) for up to 10 minutes at 37° C. Recovery of activity was tested with dose-response curves as indicated.
FIG. 9. Stability of peptides in rodent intestine. EC50 values for different peptides and different incubation times were calculated from FIG. 8 and recovered activity plotted as a function of time.
Peptides are degraded by proteases in the gastrointestinal tract. However the speed of this degradation depends on the sequence of the peptide. In order to measure stability of the […] peptide series and to compare with e.g. RRKPYIL, 10 or 50 mg (wet weight) of mouse or rat intestinal tissue (distal ileum) was equilibrated in V-bottom 24 well plates in 800 μl HBSS, 25 mM HEPES, pH 7.4 at 37° C. with shaking at 350 rpm. Identical amounts of different peptides (final concentration of 1 μg/ml) were added to the intestinal pieces and incubation continued. At various time points, 100 μl aliquots were removed and diluted into whey protein hydrolysate (final concentration of 10 mg/ml) to non-specifically compete protease activity. Peptide solutions were then diluted and tested for bioactivity (FIG. 8). Peptides incubated under same conditions but in absence of intestine served as controls (no degradation). […]

carboxypeptidase = test: Carboxypeptidase activity in pancreatin (Hippuryl-L-phenylalanine); assay type: biochemical, porcine; settings: 0.1 mg/ml pancreatin (FIG. 23D)
Source text: FIG. 23. Enzymes in intestine homogenate and pancreatin.

| Substance | sensitivity to trypsin (trypsin) | Stability in serum (activity remaining) [1] | sensitivity to chymotrypsin (chymotrypsin) | degradation by gastric pepsin (gastric pepsin) | pEC50 (murine intestinal cells) | Stability in intestine (activity remaining) [2] [%] | sensitivity to carboxypeptidases (carboxypeptidases) | stability compared with the active fragment of neurotensin [3] | carboxypeptidase activity (carboxypeptidase) |
| --- | --- | --- | --- | --- | --- | --- | --- | --- | --- |
| ASDKPYIL [Peptide 36036, A SDKPYIL] | sensitive | 0.0988 | sensitive | resilient | 8.45 | 6.0 | sensitive | 100-1000 times | – |
| CPI: commercial carboxypeptidase inhibitor from Potato tuber (QQHADPICNKPCKTHDDCSGAWFCQACWNSARTCGPYVG) | – | – | – | – | – | – | – | – | efficiently suppressed |
